# Measurements published in publication PMC4801149 (Drug Design, Development and Therapy, 2016).
# Like-named read-outs stand apart in the source and are kept apart here.
# What was measured:
# BGC823 cells [1] = assay: Cell cycle distribution by flow cytometry; assay type: cell-based, Human
# other CDKs = assay: Kinase assay in vitro, other CDKs overall; assay type: biochemical; settings: read-out: IC50 values for inhibition of other CDKs; CDKs other than CDK7
# BGC823 cells [2] = assay: Apoptosis by flow cytometry; assay type: cell-based, Human; settings: compared to control, dose- and time-dependent, P<0.05
# BGC823 cells [3] = assay: Matrigel-coated transwell invasion assay; assay type: cell-based, Human; settings: 24 hours, matrigel-coated transwells, dose-dependent, P<0.05
# [4] = cited from earlier work
# [5] = tested on: RNA polymerase II CTD serine 5 (P-Ser5), CDK7 phosphorylation site; assay: Immunoblotting of RNA polymerase II CTD Ser5 phosphorylation; assay type: cell-based, Human; settings: BGC823 whole cell lysates, 4 hours
# BGC823 cells [6] = assay: Western blot of apoptosis and cell cycle proteins; assay type: cell-based, Human; settings: P<0.05
# BGC823 cells [7] = assay: Transwell cell migration assay; assay type: cell-based, Human; settings: 24 hours, dose-dependent, P<0.05
structure (smiles),measurement,setting,value
"CC[C@H](CO)Nc1nc(NCc2ccccc2)c2ncn(C(C)C)c2n1 [Roscovitine, roscovitine]",mice died in additional 30-day survival observation,"BGC823 xenograft; roscovitine 20 mg/kg/d for 14 days, five of ten",50%
CC(C)c1cnn2c(NCc3ccccc3)cc(NCCCCCCN)nc12 [BS-181],cell population in S and G2/M phases,BGC823 cells [1],reduction
same,cells in G0/G1,BGC823 cells [1],increase
same,"mice body weights, difference between groups","BGC823 xenograft; 14-day observation, 10 or 20 mg/kg/d ip",no significant difference
same,mice died in additional 30-day survival observation,"BGC823 xenograft; BS-181 10 mg/kg/d ip for 14 days, six of ten",60%
same,mice died in additional 30-day survival observation,"BGC823 xenograft; BS-181 20 mg/kg/d ip for 14 days, three of ten",30%
same,toxicity,"BGC823 xenograft; daily dose of 10 mg/kg or 20 mg/kg ip, 14 days",no apparent toxicity
same,tumor growth,"BGC823 xenograft; ip twice daily, 10 or 20 mg/kg/d, 14 days, dose-dependent, compared to control, P<0.05",significantly inhibited
same,IC50,other CDKs,> 1000 nM
same,apoptotic cells,BGC823 cells [2],Significant increases
same,cell invasion ability,BGC823 cells [3],significantly inhibited
same,tolerability,"[4]; dose of 10 mg/kg/d or 20 mg/kg/d, BALB/c-nu mice",well-tolerated
same,maximum tolerated single dose,[4]; given intraperitoneally,30 mg/kg/day
same,phosphorylation of the RNA polymerase II CTD at serine 5 (P-Ser5),[5],inhibited
same,XIAP expression,BGC823 cells [6],significant reduction
same,cyclin D1 expression,BGC823 cells [6],significant reduction
same,Bax expression,BGC823 cells [6]; compared to control,significantly increased
same,Bcl-2 level,BGC823 cells [6]; compared to control,reduced
same,caspase-3 expression,BGC823 cells [6]; compared to control,significantly increased
same,cell migration ability,BGC823 cells [7],significantly inhibited
